Reference: patent publication US10195156B2, “Compounds and compositions for intracellular delivery of agents” (ModernaTX, Inc., priority 2015, dated 2019)

Legend:
[1] = system: modified luciferase expression; experiment: Expression of Luc in different organs (liver, lung, spleen, femur) 6 hours after intravenous administration; format: in vivo; details: Table 3, mice, i.v., 0.5 mpk
Description: The efficacy of the nanoparticle compositions presented in Tables 1, 1a, 17-1, 19-1, 20-1 and 21-1 was further evaluated by measuring the expression of modified luciferase in the liver, lung, spleen, and femur upon administration of a given composition. Formulations were administered intravenously to mice (n=3) at a dosage of 0.5 mpk and bioluminescence measured after 6 hours. The standard MC3 formulation and a PBS control were also tested.

[2] = Encapsulation efficiency of RNA (QUANT-IT RIBOGREEN RNA assay); format: physicochemical; details: Table 1; rows without footnote mark
How it was run: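 Nanoparticle samples diluted to ~5 μg/mL RNA in TE buffer (pH 7.5), incubated with or without 2% Triton X-100 solution at 37 °C for 15 min, then RiboGreen added. Fluorescence read at ~480/520 nm, blank-subtracted; free RNA % = intact over Triton-disrupted signal.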

[3] = Particle size and polydispersity index of nanoparticle compositions (Zetasizer Nano ZS); format: physicochemical; details: for PDI / Size (nm): Table 1; for PDI: rows without footnote mark; for Size (nm): rows without footnote mark (lipid:DOPE:cholesterol:PEG-DMG 40:20:38.5:1.5, Luc mRNA; MC3 standard formulation)
How it was run: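 Particle size and PDI were measured on a Zetasizer Nano ZS with the nanoparticle compositions dispersed in 1×PBS.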

[4] = pKa of nanoparticle compositions; format: physicochemical; details: Table 1; rows without footnote mark
[5] = Lipid clearance: % dose remaining in mouse liver 6 h and 24 h after administration of nanoparticle compositions; format: in vivo, CD-1 mice
Excerpt: In contrast, hEPO expression in rats induced by administration of a nanoparticle composition including a compound according to one of formulae (I), (Ia1)-(Ia6), (Ib), (II), (IIa), (III), and (IIIa) was substantially […] than that measured for MC3. […] Table 7c and 7d show additional protein expressions and clearance data from compositions with various compounds disclosed herein as compared to with MC3.

[6] = system: luciferase (Luc) mRNA expression; experiment: Expression of Luc induced by sample formulations, whole-body bioluminescence after intravenous administration; format: in vivo; details: Table 2; mice, i.v., 0.5 mg/kg, 6 hours
How it was run: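 Mice (n=6) dosed intravenously with Luc mRNA nanoparticle formulations at 0.5 mg/kg. Whole-body bioluminescence measured at 3, 6 and 24 h. Standard MC3 formulation and PBS control run alongside.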

[7] = Lipid levels in liver and spleen 48 hours after administration; format: in vivo, rats; details: rat liver, 48 h
Description: Formulations were administered intravenously to rats (n=3 or 6) at a dosage of 0.2 mg/kg or 0.5 mg/kg (mpk) and hEPO levels measured at 3, 6, and 24 hour time points. After the 48 hour time point, livers and spleens were harvested and frozen.
The amount of lipid in the liver and spleen 48 hours after administration of a nanoparticle composition was also measured. […] In contrast, approximately 60% of doses including MC3 or Compound 22 remained in the liver after 48 hours. Less than 3% of the dose remained in the spleen for each composition tested.

hEPO mRNA expression = experiment: Expression of hEPO in rats after intravenous administration; format: in vivo; details: hEPO expression in S.D. rats; for AUC/MC3 0.1 mpk / AUC/MC3 1 mpk: relative to MC3
Description: PBS (phosphate buffered saline) is used as control.
Formulations were prepared according to Table 5 and included mRNA encoding hEPO.
[…] After the 48 hour time point, livers and spleens were harvested and frozen.

SMILES | Total Flux Liver [1] | Total Flux Spleen [1] | EE (%) [2] [%] | PDI [3] | Size (nm) [3] [nm] | pKa [4] | % Dose remaining 6 h CD-1 mice [5] [%] | % Dose remaining 24 h CD-1 mice [5] [%] | Total Flux 6 hours [6] | % dose remainng Rat liver (48 h) [7] [%] | % dose remaining Mouse liver (24 h) [5] [%] | AUC (0.1 mpk) (hEPO mRNA expression) | AUC/MC3 0.1 mpk (hEPO mRNA expression) | AUC (1 mpk) (hEPO mRNA expression) | AUC/MC3 1 mpk (hEPO mRNA expression) | particle size, rank within the named table (in words) ([3]; comparison amongst compositions)
CCCCCCCCCN(CCCCCCCCC)CCN(CCCCCCCCC)CC(=O)N1CC2CC1CN2C(=O)CN(CCCCCCCCC)CCCCCCCCC (stereo not shown) [Compound 42, 2-(Dinonylamino)-1-(5-(N-(2-(dinonylamino)ethyl)-N-nonylglycyl)-2,5-diazabicyclo[2.2.1]heptan-2-yl)ethan-1-one] | 5.53E+09 | 2.29E+08 | 97.1 | 0.190 | 116.4 | 6.77 | 58 | 53 | 4.99E+10 | – | – | – | – | – | – | –
CCCCCCCCCCCCN(CCCCCCCCCCCC)CCN(CCCCCCCCCCCC)CC(=O)N1CC2CC1CN2C(=O)CN(CCCCCCCCC)CCCCCCCCC (stereo not shown) [Compound 43, 2-((2-(Didodecylamino)ethyl)(dodecyl)amino)-1-(5-(dinonylglycyl)-2,5-diazabicyclo[2.2.1]heptan-2-yl)ethan-1-one] | 2.60E+08 | 4.52E+07 | 99.1 | 0.220 | 99.0 | 6.72 | 69 | 64 | 4.54E+09 | – | – | – | – | – | – | –
CCCCCCCCCN(CCCCCCCCC)CCN(CCCCCCCCC)CC(=O)N1CCN(C(=O)CN(CCCCCCCCC)CCCCCCCC(=O)OC)CC1 [Compound 44, Methyl 8-((2-(4-(N-(2-(dinonylamino)ethyl)-N-nonylglycyl)piperazin-1-yl)-2-oxoethyl)(nonyl)amino)octanoate] | 1.11E+09 | 1.19E+08 | 89.5 | 0.190 | 94.9 | 6.82 | <1 | <1 | 1.07E+10 | – | – | – | – | – | – | –
CCCCCCCCCN(CCCCCCCCC)CCN(CCCCCCCCC)CC(=O)N1CCN(C(=O)CN(CCCCCCCCC)CCCC(=O)OCCCCC)CC1 [Compound 45, Pentyl 4-((2-(4-(N-(2-(dinonylamino)ethyl)-N-nonylglycyl)piperazin-1-yl)-2-oxoethyl)(nonyl)amino)butanoate] | 7.87E+09 | 1.70E+08 | 94.9 | 0.200 | 100.2 | 6.77 | 33 | 24 | 7.86E+10 | 8.57 | 23.7 | 1.45E+06 | 0.90 | 2.00E+08 | 1.7 | –
CCCCCCCCCN(CCCCCCCC(=O)OC)CCN(CCCCCCCCC)CC(=O)N1CCN(C(=O)CN(CCCCCCCCC)CCCCCCCCC)CC1 [Compound 46, Methyl 8-((2-((2-(4-(dinonylglycyl)piperazin-1-yl)-2-oxoethyl)(nonyl)amino)ethyl)(nonyl)amino)octanoate] | 3.84E+08 | 4.35E+07 | 97.5 | 0.160 | 81.8 | 6.77 | 1 | <1 | 5.26E+09 | – | – | – | – | – | – | –
CCCCCCCCCN(CCCCCCCCC)CCN(CCCCCCCC(=O)OC)CC(=O)N1CCN(C(=O)CN(CCCCCCCCC)CCCCCCCCC)CC1 [Compound 47, Methyl 8-((2-(dinonylamino)ethyl)(2-(4-(dinonylglycyl)piperazin-1-yl)-2-oxoethyl)amino)octanoate] | 4.95E+08 | 1.42E+08 | 53.1 | 0.180 | 89.8 | 6.82 | 1 | <1 | 2.64E+09 | – | – | – | – | – | – | –
CCCCCCCCCN(CCCCCCCC(=O)OC)CCN(CCCCCCCC(=O)OC)CC(=O)N1CCN(C(=O)CN(CCCCCCCCC)CCCCCCCCC)CC1 [Compound 48, Methyl 8-((2-(4-(dinonylglycyl)piperazin-1-yl)-2-oxoethyl)(2-((8-methoxy-8-oxooctyl)(nonyl)amino)ethyl)amino)octanoate] | 1.04E+07 | 1.50E+07 | 79.3 | 0.099 | 111.4 | 6.99 | <1 | <1 | 1.05E+08 | – | – | – | – | – | – | –
CCCCCCCCCN(CCCCCCCCC)CCC1CCN(C(=O)CN(CCCCCCCCC)CCN(CCCCCCCCC)CCCCCCCCC)CC1 [Compound 49, 2-((2-(Dinonylamino)ethyl)(nonyl)amino)-1-(4-(2-(dinonylamino)ethyl)piperidin-1-yl)ethan-1-one] | 1.21E+10 | 6.65E+07 | 98.8 | 0.200 | 95.8 | 6.4 | 49 | 40 | 5.67E+10 | 38.45 | 40.3 | 5.98E+06 | 3.7 | 1.44E+08 | 1.2 | –
CCCCCCCCCN(CCCCCCCCC)CCN(CCCCCCCCC)CCC1CCN(C(=O)CN(CCCCCCCCC)CCCCCCCCC)CC1 [Compound 50, 2-(Dinonylamino)-1-(4-(2-((2-(dinonylamino)ethyl)(nonyl)amino)ethyl)piperidin-1-yl)ethan-1-one] | 2.14E+07 | 1.94E+05 | 98.7 | 0.190 | 65.6 | 5.55 | 56 | 47 | 1.48E+08 | – | – | – | – | – | – | smallest particles
CCCCCCCCCCCCCCN(CCCCCCCCCCCCCC)CC(=O)N1CCN(C(=O)CN(CCCCCCCCC)CCN(CCCCCCCCC)CCCCCCCCC)CC1 [Compound 51, 2-((2-(Dinonylamino)ethyl)(nonyl)amino)-1-(4-(ditetradecylglycyl)piperazin-1-yl)ethan-1-one] | 3.55E+09 | 2.24E+07 | 98.4 | 0.190 | 76.6 | 6.44 | 54 | 41 | 6.70E+10 | – | – | – | – | – | – | –
CCCCCCCCCN(CCCCCCCCC)CCC(=O)N1CCN(C(=O)CCN(CCCCCCCCC)CCN(CCCCCCCCC)CCCCCCCCC)CC1 [Compound 52, 3-(Dinonylamino)-1-(4-(3-((2-(dinonylamino)ethyl)(nonyl)amino)propanoyl)piperazin-1-yl)propan-1-one] | 1.18E+10 | 8.74E+08 | 97.5 | 0.100 | 94.4 | 6.77 | 46 | 40 | 9.85E+10 | – | – | – | – | – | – | –
